Assay results as given in US9725752B2, “Resonator and process for performing biological assay” (THE UNITED STATES OF AMERICA, AS REPRESENTED BY THE …, priority 2015, dated 2017).

Key:
Type in all cases: cell-based
[1] = system: Escherichia coli (E. coli) cells; assay: Optical microscope images of cell density on the crystal
[2] = system: Escherichia coli (E. coli) cells; assay: Phase noise of piezoelectric resonator with adhered microbes exposed to antibiotic; conditions: for time frame in which the resonator method detects antimicrobial action against live E. coli cells: preliminary experiments; for PSDs of the acoustic resonators when the antibiotic was introduced: spectral power 4 Hz to 20 Hz, FIG. 35, FIG. 36
Description: An acoustic article was prepared to detect microbial viability through measurements of phase noise of a resonator on which microbes were adhered. An acoustic article was prepared by combining a piezoelectric resonator (commercially available from Biolin Scientific, model Q-Sense) and custom fabricated components that interfaced to the piezoelectric resonator. The piezoelectric resonator included an electrical contact to a piezoelectric crystal. […] One side of the piezoelectric crystal faced a fluid chamber and was coated with a thin layer of poly-L-lysine (PLL) to promote adhesion of microbes to the surface. The piezoelectric resonator was disposed on an aluminum platform that incorporated electrical lines to the resonator, and the platform was placed on a thermally controlled platform held at a constant temperature of approximately 37° C. Phosphate-buffered saline (PBS) was introduced to the fluid chamber, and electronics configured according to FIG. 30 and FIG. 31 were used to determine the resonant frequency of the resonator by varying the output frequency from frequency source 200 while monitoring the amplitude of the RF output from amplifier 222. The output frequency of the CW voltage from the frequency source was then set to this measured resonant frequency. Subsequently, averaged power spectral densities of phase noise from the resonator were determined from the measured time-varying voltage from phase-noise detector 106 passed to vector signal analyzer 206, through the use of a calibration of phase-noise detector 106. Following acquisition of this background spectrum, Escherichia coli (E. coli) cells were suspended in PBS and flowed through the fluid chamber over the crystal for five minutes. The chamber was then drained of fluid and refilled with Luria-Bertani (LB) broth to provide nutrients for bacterial growth. E. coli adhered to the crystal surface during this sequence, and unattached cells were washed away.
Power spectral densities (PSDs) were repeatedly acquired over a period beginning 30 minutes before ampicillin in LB was introduced to the crystal and ending 68 minutes after this introduction of ampicillin. Before the acquisition of each averaged spectrum, the output of frequency source 200 was retuned to the current frequency of the resonator while monitoring the output of amplifier 222. […] The background PSD in PBS has been subtracted from these spectra.
To provide a scalar quantity reflective of the measured PSDs, the spectra in FIG. 33 and similar spectra at other times during the experiment were integrated over the frequency range from 3 Hz to 20 Hz. This quantity, which is the total spectral power over this frequency range, is plotted in FIG. 34 as a function of time.
Simultaneous control measurements of PSDs were also acquired on a second piezoelectric crystal with the same sequence of introduction of fluids, except that the effector fluid contained no ampicillin. With this control crystal, PSDs increased continuously during the entire experiment.
The acoustic article, electronic circuitry, data acquisition procedures, and fluid-analyte processing steps described in Example 1 were used to probe the effect of an antibiotic, polymyxin B, on phase noise generated by E. coli Here, two identical resonators (“Crystal A” and “Crystal B”) were used in which Crystal B was not exposed to polymyxin B until more than 40 minutes after introduction of polymyxin B to Crystal A.
Measurements of PSDs of the first resonator (Crystal A) before and after exposure of E. coli to polymyxin B are shown in FIG. 35. […] Data from second resonator Crystal B with E. coli not exposed to polymyxin B during 0-40 minutes are shown in FIG. 36 and labelled as “Crystal B,” wherein data labelled as “Crystal A” are data taken in presence of polymyxin B during 0-40 minutes and later.

[3] = system: Escherichia coli (E. coli) cells; assay: Plating of cells collected from the crystal for enumeration of colony-forming units (CFUs); conditions: LB-agar plates, growth at least 24 hours; for number of CFUs relative to a parallel sample not exposed to antibiotic: cells collected from crystal
Description: To confirm the action of the antibiotic on E. coli viability, cells were collected from the surface of the crystal and plated after serial dilution onto LB-agar plates for enumeration of colony-forming units (CFUs).
To confirm the action of the antibiotic on E. coli viability, cells were collected from the surface of the resonators (Crystal A and Crystal B) and plated after serial dilution onto LB-agar plates for enumeration of colony-forming units (CFUs).

Row | Compound | cell density after introduction of antibiotic ([1]; period beginning 30 min after introduction of ampicillin, FIG. 34) | spectral power of phase noise soon after introduction of antibiotic ([2]; PSD integrated 3 Hz to 20 Hz, E. coli on PLL-coated crystal in LB, approx. 37° C., FIG. 34) | time after introduction of antibiotic at which spectral power began dropping towards the background level ([2]; PSD integrated 3 Hz to 20 Hz, FIG. 34) | time frame in which the resonator method detects antimicrobial action against live E. coli cells [2] | PSDs of the acoustic resonators when the antibiotic was introduced [2] | number of CFUs relative to a parallel sample not exposed to antibiotic [3] | disintegration of E. coli cells [1] | CFUs recovered from treated resonators ([3]; FIG. 37)
1 | CC1(C)S[C@@H]2[C@H](NC(=O)[C@H](N)c3ccccc3)C(=O)N2[C@H]1C(=O)O [ampicillin] | dropped as a result of lysing and disintegration of cells | essentially leveled off | approximately 30 minutes | within a one-hour time frame | dropped dramatically | several log decrease |  | 
2 | polymyxin B |  |  |  | within a one-hour time frame | dropped dramatically | greater than several log decrease | does not induce a disintegration | no CFUs were recovered
